# Assay results: patent US20220281931A1, “CHEMICALLY INDUCIBLE POLYPEPTIDE POLYMERIZATION” (Dana-Farber Cancer Institute, Inc., priority 2019, published 2022)
# What was measured:
# SuDHL4Cas9 cells = assay: Whole proteome quantification using tandem mass tag mass spectrometry; assay type: cell-based, human; settings: SuDHL4 cells, 1 μM compound, 4 hours
# Description: 10×10^6 SuDHL4Cas9 cells were treated with DMSO, 1 μM BI-3802 or 1 μM BI-3812 for 1 h or 4 h in triplicates and cells were harvested by centrifugation. Samples were processed, measured and analyzed as previously described (Donovan, K. A. et al. Thalidomide promotes degradation of SALL4, a transcription factor implicated in Duane Radial Ray syndrome. Ehfe 7, doi:10.7554/eLife.38430 (2018)). Data are available in the PRIDE repository (PXD016185).
# BCL6 = target: T1, BCL6 (Homo sapiens, UniProt P41182); assay: Cellular fractionation and immunoblot of BCL6; assay type: cell-based; settings: SuDHL4 cells, 1 μM, 24 hours
# T1 construct: endogenous in cells; host or cells: SuDHL4 / SuDHL4Cas9 cells
# Description: 1×10^6 SuDHL4Cas9 cells were treated with DMSO or 1 μM BI-3802 for 24 h and fractionated using the CelLytic™NuCLEAR™Extraction Kit (Sigma-Aldrich) according to the manufacturer's protocol, resolved on a polyacrylamide gel, and immunoblotted for the indicated targets.
# [1] = target: T2, BCL6-eGFP fusion construct (Homo sapiens, UniProt P41182); assay: Live cell imaging of BCL6-eGFP foci in HEK293T cells; assay type: cell-based; settings: HEK293T cells, full length BCL6 and eGFPBCL6^1-275, 1 μM
# T2 construct: expressed in transfected cells; host or cells: HEK293TCas9 cells, lentiviral transduction (Cilantro2 vector)
# Description: 1×10^3 HEK293T cells per cm^2 were seeded in a μ-Slide 8 Well chamber (ibidi) and cultured for 18-24 h under standard growth conditions. Cell culture medium was exchanged to CO2 independent media (Gibco) and imaged with the DeltaVision Ultra High-Resolution Microscope (GE Healthcare, 100×lens, oil refraction index=1.520). The following acquisition parameters were used: Image size […], binning 1×1, GFP exposure time 0.08 sec. and the Neutral Density (% T) filter 32%. To capture foci within all cell volume, around 26μm per cell was imaged every 0.4-0.5 μm. Images were deconvolved (10 cycles, conservative conditions) and projected using maximal intensity by softWoRx® 7.0.0. Images for movies were taken every 10 minutes and combined to a movie by QuickTime.
# [2] = target: T3, eGFPBCL6^1-275 and V5SIAH1 (Homo sapiens, UniProt P41182); assay: Immunofluorescence of SIAH1 and BCL6 foci in HEK293T cells; assay type: cell-based; settings: HEK293TCas9 cells, 0.5 μM MLN7243 pre-treatment 2 hours, 1 μM BI-3802 1 hour
# T3 construct: expressed in transfected cells; host or cells: HEK293TCas9 cells, lentiviral transduction
# Description: HEK293TCas9 cells expressing eGFPBCL6^250 and eGFPBCL6^275 constructs were transduced with V5SIAH1^C44S (infection rate >70%). […] The cells were fixed with 4% formaldehyde for 15 min and permeabilized with 0.1% Triton X100 for 30 min. Epitopes were blocked with 10% BSA for 10 min. Anti-V5 antibodies were added and incubated on slides overnight at 4° C. After removal of the primary antibodies and washes, Alexa Fluor 633-conjugated anti-mouse antibodies were added and incubated at room temperature for 45 min. Finally, the slides were stained with DAPI (BD Biosciences, #564907, 1:5,000 in H2O) and mounted with SlowFader™ Diamond Antifade Mountant (Thermo Fisher Scientific, S36963). Cells were imaged with the Leica TCS SP5 confocal microscope.
# [3] = target: T4, Nano-LuciferaseSIAH1^C44S and HaloTagBCL6 (Homo sapiens, UniProt P41182); assay: NanoBRET BCL6-SIAH1 interaction in HEK293T cells; assay type: cell-based; settings: 1 μM, 2 hours
# T4 construct: expressed in transfected cells; host or cells: HEK293T cells, transient transfection
# Description: Bioluminescence resonance energy transfer (BRET) experiments were performed using a NanoBRET PPI starter kit (Promega N1821) according to the manufacturer's instructions and as previously described (Sperling, A. S. et al. Patterns of substrate affinity, competition, and degradation kinetics underlie biological activity of thalidomide analogs. Blood 134, 160-170, doi:10.1182/blood.2019000789 (2019)).
# BCL6^5-129 = target: T5, BCL6^5-129 (Homo sapiens, UniProt P41182); assay: BCL6-BCoR TR-FRET (compound binding assay); settings: 0.1 μM FITCBCoR polypeptide, 0.1 μM BiotinBCL6^5-129
# T5 construct: mixing 100 nM biotinylated BCL6^5-129, 100 nM N-terminal FITC-labeled BCoR peptide; made in house; host or cells: Trichoplusia ni High Five insect cells, baculovirus
# Description: Competitive titration of BI-3802 or BI-3812 were carried out by mixing 100 nM biotinylated BCL6^5-129, 100 nM N-terminal FITC-labeled BCoR peptide (sequence: […]), and 2 nM terbium-coupled streptavidin in the same assay buffer. After dispensing the assay mixture (15 μL volume), increasing concentrations of compounds were dispensed in a 384-well microplate (Corning, 4514) using a D300e Digital Dispenser (HP) normalized to 1% DMSO. The 520/490 nm ratios were measured as described above and plotted to calculate the KD^APP values using dose-response analysis standard four parameter log-logistic curves using the dr4pl R package.
# lymphoma cells = settings: cited from earlier work
# BCL6^5-360 = target: T6, BCL6^5-360 (Homo sapiens, UniProt P41182); assay: Size-exclusion chromatography of purified recombinant BCL6; assay type: biochemical; settings: purified BCL6^5-360, 2 μM compound
# T6 construct: size-exclusion chromatogram of purified BCL6^5-360 in the presence of DMSO; made in house; host or cells: Trichoplusia ni High Five insect cells, baculovirus
# Description: The human wild-type and mutant versions of BCL6 (residue 5-129 or 5-360) and SIAH1 variants (residue 90-282 (substrate binding domain, SBD) or full length), were cloned in pAC-derived vectors. Baculovirus for protein expression (Invitrogen) was generated by transfection into Spodoptera frugiperda (Sf9) cells at a density of 0.9×10^6 cells/mL grown in ESF 921 media (Expression Systems), followed by three rounds of infection in Sf9 cells to increase viral titer. Recombinant proteins were expressed and purified as N-terminal His6 C-terminal Spy (wild-type and mutant versions of BCL6^5-360), N-terminal Strep II-Avi (BCL6^5-129, BCL6^5-360, and SIAH1^SBD), and N-terminal Flag (SIAH1^FL) fusions in Trichoplusiani High Five insect cells using the baculovirus expression system (Invitrogen).
structure (smiles),measurement,setting,value
"CNC(=O)COc1cc2cc(Nc3nc(N4C[C@H](C)C[C@H](C)C4)ncc3Cl)ccc2n(C)c1=O [BI-3802, 2-((6-((5-chloro-2-((3S,5R)-3,5-dimethylpiperidin-1-yl)pyrimidin-4-yl)amino)-1-methyl-2-oxo-1,2-dihydroquinolin-3-yl)oxy)-N-methylacetamide]",change in polypeptide abundance (whole proteome),SuDHL4Cas9 cells,BCL6 was the only polypeptide with significantly decreased abundance
same,chromatin-bound BCL6 level,BCL6,efficiently depleted chromatin-bound BCL6
same,eGFP-containing BCL6 foci formation,[1],appearance of distinct eGFP-containing foci was observed within minutes
same,SIAH1 colocalization to BCL6 foci,[2],SIAH1 colocalized to BCL6 foci in a V×P motif dependent manner
same,effect on the BCL6-SIAH1 interaction in cells (mBRET signal),[3],increased the interaction between BCL6 and SIAH1
same,affinity of compound to BCL6 (BCoR peptide competition),BCL6^5-129,comparable affinity
same,activity against lymphoma cells compared to BI-3812,lymphoma cells,markedly increased activity against lymphoma cells
same,higher molecular weight species of recombinant BCL6,BCL6^5-360,led to higher molecular weight species of BCL6
